Measured values from BindingDB's records for patent US10071965 (The State University of New York, 2018).

Target: T1, Enoyl-[acyl-carrier-protein] reductase [NADPH] FabI (Staphylococcus aureus (strain MRSA252), UniProt Q6GI75)
T1 sequence (Q6GI75 whole entry): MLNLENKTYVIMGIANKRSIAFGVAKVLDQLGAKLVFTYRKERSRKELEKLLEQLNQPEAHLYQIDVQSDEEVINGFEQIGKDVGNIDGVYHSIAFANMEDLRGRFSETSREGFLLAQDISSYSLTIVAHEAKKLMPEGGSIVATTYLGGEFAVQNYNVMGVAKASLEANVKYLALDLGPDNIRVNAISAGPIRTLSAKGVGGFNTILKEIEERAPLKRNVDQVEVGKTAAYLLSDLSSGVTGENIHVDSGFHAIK
Test: Tight-binding assay
Settings: pH 7.5

Compound: Cc1ccc(Oc2ccccc2)c(O)c1 [US10071965, Compound PT53]
- Ki: 494 nM
